Values of other authors as cited in publication PMC7961821, “Comparing Ligninolytic Capabilities of Bacterial and Fungal Dye-Decolorizing Peroxidases and Class-II Peroxidase-Catalases” (International Journal of Molecular Sciences, 2021).

What was measured:
PchLiPA = target: T1, PchLiPA (Phanerodontia chrysosporium, UniProt P06181); assay: steady-state kinetics, absorbance loss at […] nm; format: biochemical; details: read-out: RB19; 1 mM H2O2, optimal pH (not given for RB19), 25 °C
T1 construct: gene LPOA; heme enzyme
T1 sequence (P06181 29-372): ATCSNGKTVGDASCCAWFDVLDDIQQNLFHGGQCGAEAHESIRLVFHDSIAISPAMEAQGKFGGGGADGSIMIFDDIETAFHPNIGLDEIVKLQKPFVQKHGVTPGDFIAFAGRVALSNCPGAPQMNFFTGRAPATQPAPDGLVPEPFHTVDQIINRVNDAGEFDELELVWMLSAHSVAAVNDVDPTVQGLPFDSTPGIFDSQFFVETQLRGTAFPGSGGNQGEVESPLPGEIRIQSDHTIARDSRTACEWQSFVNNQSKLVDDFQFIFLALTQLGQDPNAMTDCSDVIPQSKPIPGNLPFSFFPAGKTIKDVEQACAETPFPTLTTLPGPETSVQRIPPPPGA

PerVPL = target: T2, PerVPL (Pleurotus eryngii, UniProt O94753); assay: steady-state kinetics, absorbance loss at […] nm; format: biochemical; details: read-out: RB19; 1 mM H2O2, optimal pH (not given for RB19), 25 °C
T2 construct: gene vpl2; heme enzyme
T2 sequence (O94753 31-361): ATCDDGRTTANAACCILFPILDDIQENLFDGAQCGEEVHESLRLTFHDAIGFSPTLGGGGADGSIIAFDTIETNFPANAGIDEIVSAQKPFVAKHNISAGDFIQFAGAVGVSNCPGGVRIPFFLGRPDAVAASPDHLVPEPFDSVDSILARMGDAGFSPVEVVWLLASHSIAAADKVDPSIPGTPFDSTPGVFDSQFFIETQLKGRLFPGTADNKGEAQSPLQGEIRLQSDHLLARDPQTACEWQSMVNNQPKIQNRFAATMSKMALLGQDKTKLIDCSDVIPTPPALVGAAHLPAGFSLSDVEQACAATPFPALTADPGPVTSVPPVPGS

Km (PchLiPA): 34 ± 13 µM
Km (PerVPL): 33 ± 8 µM
Structure (SMILES): Nc1c(S(=O)(=O)O)cc(Nc2cccc(S(=O)(=O)CCOS(=O)(=O)O)c2)c2c1C(=O)c1ccccc1C2=O [RB19]
